{"source": "patent US20100298402A1", "about": "“STILBENE DERIVATIVES AS PSTAT3/IL-6 INHIBITORS” (ORCHID RESEARCH LABORATORIES LIMITED, priority 2007, published 2010)", "key": {"[1]": {"tested_on": "HCT 116 (colon), NCIH460 (lung) and U251 (glioma) cell lines", "experiment": "Anti-cancer screen (MTT growth inhibition, 48 hours);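 further: mean GI50 across the three cell lines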", "assay_type": "cell-based", "conditions": "Homo sapiens; HCT 116, NCIH460 and U251 cell lines; MTT after 48 hours of incubation", "procedure": "The experimental drugs were screened for anti-cancer activity in three cell lines using five concentrations for each compound. The cell lines—HCT 116 (colon), NCIH460 (lung) and U251 (glioma) were maintained in DMEM containing 10% fetal bovine serum. 96-well microtiter plates are inoculated with cells in 100 μL of cell suspension (5×10^4 cells/mL) for 24 hours at 37° C., 5% CO2, 95% air and 100% relative humidity. A separate plate with these cell lines is also inoculated to determine cell viability before the addition of the compounds (T0)\nFollowing 24-hour incubation, test compounds were added to the 96 well plates. Each plate contains one of the above cell lines and the following samples in triplicate: five different dilutions (0.01, 0.1, 1, 10 and 100 μM) of four test compounds, appropriate dilutions of a cytotoxic standard and growth medium (untreated) wells. Test compounds were dissolved in DMSO to prepare 20 mM stock solutions on the day of drug addition and serial dilutions were carried out in complete growth medium at 2× strength, such that 100 μL added to the wells gave final concentrations (0.01, 0.1, 1, 10 and 100 μM) in the well. SAHA was used as the standard drug in these experiments.\nFor T0 measurement, 24 hours after seeding the cells, 20 μL of 3-(4,5-dimethyl-2-thiazolyl)-2,5-diphenyl-2H-tetrazolium (MTT) solution per well was added to the ‘T0’ plate and incubated for 3 hours at 37° C. in a CO2 incubator. The plate containing cells and test compounds was treated similarly after 48 hours of incubation. After 3 hours of MTT addition, well contents were aspirated carefully followed by addition of 150 μL DMSO per well. Plates were agitated to ensure dissolution of the formazan crystals in DMSO and absorbance was read at 570 nm (A570).\nPercent growth (PG) is calculated relative to the control and zero measurement wells (T0) as follows:\nPG values are plotted against drug concentration to derive the following: GI50 is the concentration required to decrease PG by 50% vs control; TGI is the concentration required to decrease PG by 100% vs control and LC50 is the concentration required to decrease PG by 50% vs T0. (Mosmann T. Rapid colorimetric assay for cellular growth and survival: application to proliferation and cytotoxicity assays. (J. Immunol. Methods. 1983, 65 (1-2), 55-63; Anne Monks et al); feasibility of high-flux anticancer drug screen using a diverse panel of cultured human tumor cell lines”. (JNCI, Vol. 83, No. 11, 1991). Results for growth inhibition of synthesized compounds are given in Table-1."}, "[2]": {"tested_on": "IL-6 in supernatant of NCIH 460 cells", "experiment": "Measuring IL-6 in culture supernatants (ELISA)", "assay_type": "cell-based", "conditions": "Homo sapiens, NCI-H460, 5 hours incubation"}}, "data": [{"smiles": "COC(=O)/C(=C/c1cc(OC)cc(OC)c1)c1ccc(OCC(O)CNCc2ccc(OC)cc2OC)cc1", "note": "(stereo not drawn) [Example 3, 2-{4-[3-(2,4-Dimethoxybenzylamino)-2-hydroxypropoxyl]phenyl}-3-(3,5-dimethoxyphenyl)acrylic acid methyl ester]", "values": [{"measurement": "GI50", "setting": "[1]", "result": 4.1, "unit": "µM"}, {"measurement": "inhibition at 10 µM", "setting": "[2]", "result": 67, "unit": "%"}]}, {"smiles": "COC(=O)/C(=C/c1cc(OC)cc(OC)c1)c1ccc(OCC(O)CNCc2ccc(OC(F)(F)F)cc2)cc1", "note": "(stereo not drawn) [Example 4]", "values": [{"measurement": "GI50", "setting": "[1]", "result": 32.4, "unit": "µM"}]}, {"smiles": "COC(=O)/C(=C/c1cc(OC)cc(OC)c1)c1ccc(OCC(O)CNCCOc2ccccc2OC)cc1", "note": "(stereo not drawn) [Example 5, 2-{4-[3-(2-Methoxyphenoxyethylamino)-2-hydroxypropoxyl]phenyl}-3-(3,5-dimethoxyphenyl)acrylic acid methyl ester]", "values": [{"measurement": "GI50", "setting": "[1]", "result": 3.1, "unit": "µM"}, {"measurement": "inhibition at 10 µM", "setting": "[2]", "result": 37, "unit": "%"}]}, {"smiles": "COC(=O)/C(=C/c1cc(OC)c(OC)c(OC)c1)c1ccc(OCC(O)CNCc2ccc(OC)cc2OC)cc1", "note": "(stereo not drawn) [Example 6, 2-{4-[3-(2,4-Dimethoxybenzylamino)-2-hydroxypropoxyl]phenyl}-3-(3,4,5-trimethoxyphenyl)acrylic acid methyl ester]", "values": [{"measurement": "GI50", "setting": "[1]", "result": 5.2, "unit": "µM"}, {"measurement": "inhibition at 10 µM", "setting": "[2]", "result": 73, "unit": "%"}]}, {"smiles": "COC(=O)/C(=C/c1ccc(F)c(OC)c1)c1ccc(OCC(O)CNCCOc2ccccc2OC)cc1", "note": "(stereo not drawn) [Example 7, 2-{4-[3-(2-Methoxyphenoxyethylamino)-2-hydroxypropoxyl]phenyl}-3-(4-fluoro-3-methoxyphenyl)acrylic acid methyl ester]", "values": [{"measurement": "GI50", "setting": "[1]", "result": 2.2, "unit": "µM"}, {"measurement": "inhibition at 10 µM", "setting": "[2]", "result": 58, "unit": "%"}]}, {"smiles": "COC(=O)/C(=C/c1cc(OC)c(OC)c(OC)c1)c1ccc(OCC(O)CNCc2ccc(OC(F)F)cc2)cc1", "note": "(stereo not drawn) [Example 8, 2-{4-[3-(4-Difluoromethoxybenzylamino)-2-hydroxypropoxyl]phenyl}-3-(3,4,5-trimethoxyphenyl)acrylic acid methyl ester]", "values": [{"measurement": "GI50", "setting": "[1]", "result": 3.6, "unit": "µM"}, {"measurement": "inhibition at 10 µM", "setting": "[2]", "result": 44, "unit": "%"}]}, {"smiles": "COC(=O)/C(=C/c1ccc(F)c(OC)c1)c1ccc(OCC(O)CNCc2ccc(OC)cc2OC)cc1", "note": "(stereo not drawn) [Example 9, 2-{4-[3-(2,4-Dimethoxybenzylamino)-2-hydroxypropoxyl]phenyl}-3-(4-fluoro-3-methoxyphenyl)acrylic acid methyl ester]", "values": [{"measurement": "GI50", "setting": "[1]", "result": "> 100", "unit": "µM"}, {"measurement": "inhibition at 10 µM", "setting": "[2]", "result": 34, "unit": "%"}]}, {"smiles": "COC(=O)/C(=C/c1ccc(OCC(O)CNCc2ccc(F)cc2)cc1)c1ccccc1", "note": "(stereo not drawn) [Example 10, 3-{4-[3-(4-Fluorobenzylamino)-2-hydroxypropoxyl]phenyl}-2-phenylacrylic acid methyl ester]", "values": [{"measurement": "GI50", "setting": "[1]", "result": 35.3, "unit": "µM"}, {"measurement": "inhibition at 10 µM", "setting": "[2]", "result": 4.5, "unit": "%"}]}, {"smiles": "COC(=O)/C(=C/c1cc(OC)c(OC)c(OC)c1)c1ccc(OCC(O)CNCCOc2ccccc2OC)cc1", "note": "(stereo not drawn) [Example 11, 2-{4-[3-(2-Methoxyphenoxyethylamino)-2-hydroxypropoxyl]phenyl}-3-(3,4,5-trimethoxyphenyl)acrylic acid methyl ester]", "values": [{"measurement": "GI50", "setting": "[1]", "result": 37.3, "unit": "µM"}, {"measurement": "inhibition at 10 µM", "setting": "[2]", "result": 29, "unit": "%"}]}, {"smiles": "COC(=O)/C(=C/c1ccc(OCC(O)CNCc2ccc(OC)cc2OC)cc1)c1ccc(OC)cc1", "note": "(stereo not drawn) [Example 12, 3-{4-[3-(2,4-Dimethoxybenzylamino)-2-hydroxypropoxyl]phenyl}-2-(4-methoxyphenyl)acrylic acid methyl ester]", "values": [{"measurement": "GI50", "setting": "[1]", "result": 3, "unit": "µM"}, {"measurement": "inhibition at 10 µM", "setting": "[2]", "result": 55, "unit": "%"}]}, {"smiles": "COC(=O)/C(=C/c1ccc(OC)c(OC)c1)c1ccc(OCC(O)CNCc2ccc(OC)cc2OC)cc1", "note": "(stereo not drawn) [Example 13, 2-{4-[3-(2,4-Dimethoxybenzylamino)-2-hydroxypropoxyl]phenyl}-3-(3,4,-dimethoxyphenyl)acrylic acid methyl ester]", "values": [{"measurement": "GI50", "setting": "[1]", "result": 3.5, "unit": "µM"}, {"measurement": "inhibition at 10 µM", "setting": "[2]", "result": 67, "unit": "%"}]}, {"smiles": "COC(=O)/C(=C/c1ccc(OC)c(OC)c1)c1ccc(OCC(O)CNCCOc2ccccc2OC)cc1", "note": "(stereo not drawn) [Example 14, 2-{4-[3-(2-Methoxyphenoxyethylamino)-2-hydroxypropoxyl]phenyl}-3-(3,4,-dimethoxyphenyl)acrylic acid methyl ester]", "values": [{"measurement": "GI50", "setting": "[1]", "result": 4, "unit": "µM"}, {"measurement": "inhibition at 10 µM", "setting": "[2]", "result": 38, "unit": "%"}]}, {"smiles": "COC(=O)/C(=C/c1ccc(F)c(F)c1)c1ccc(OCC(O)CNCc2ccc(OC)cc2OC)cc1", "note": "(stereo not drawn) [Example 15, 2-{4-[3-(2,4-Dimethoxybenzylamino)-2-hydroxypropoxyl]phenyl}-3-(3,4-difluorophenyl)acrylic acid methyl ester]", "values": [{"measurement": "GI50", "setting": "[1]", "result": 2.8, "unit": "µM"}, {"measurement": "inhibition at 10 µM", "setting": "[2]", "result": 44, "unit": "%"}]}, {"smiles": "COC(=O)/C(=C/c1ccc(OCC(O)CNCc2ccc(OC)cc2OC)cc1)c1ccccc1", "note": "(stereo not drawn) [Example 16, 3-{4-[3-(2,4-Dimethoxybenzylamino)-2-hydroxypropoxyl]phenyl}-2-phenyl acrylic acid methyl ester]", "values": [{"measurement": "GI50", "setting": "[1]", "result": 3.1, "unit": "µM"}, {"measurement": "inhibition at 10 µM", "setting": "[2]", "result": 68, "unit": "%"}]}, {"smiles": "COC(=O)/C(=C/c1ccccc1)c1ccc(OCC(O)CNCc2ccc(OC)cc2OC)cc1", "note": "(stereo not drawn) [Example 17, 2-{4-[3-(2,4-Dimethoxybenzylamino)-2-hydroxypropoxy]phenyl}-3-phenylacrylic acid methyl ester]", "values": [{"measurement": "GI50", "setting": "[1]", "result": 3.4, "unit": "µM"}, {"measurement": "inhibition at 10 µM", "setting": "[2]", "result": 25, "unit": "%"}]}, {"smiles": "COC(=O)/C(=C/c1cc(OC)cc(OC)c1)c1ccc(OCC(O)CNCc2ccccc2)cc1", "note": "(stereo not drawn) [Example 18, 2-{4-[3-(Benzylamino)-2-hydroxypropoxy]phenyl}-3-(3,5-dimethoxyphenyl)acrylic acid methyl ester]", "values": [{"measurement": "GI50", "setting": "[1]", "result": 5.3, "unit": "µM"}, {"measurement": "inhibition at 10 µM", "setting": "[2]", "result": 25, "unit": "%"}]}, {"smiles": "COC(=O)/C(=C/c1ccc(F)c(C)c1)c1ccc(OCC(O)CNCCOc2ccccc2OC)cc1", "note": "(stereo not drawn) [Example 19, 2-{4-[3-(2-Methoxyphenoxyethylamino)-2-hydroxypropoxy]phenyl}-3-(4-fluoro-3-methylphenyl)acrylic acid methyl ester]", "values": [{"measurement": "GI50", "setting": "[1]", "result": 4.9, "unit": "µM"}, {"measurement": "inhibition at 10 µM", "setting": "[2]", "result": 15.9, "unit": "%"}]}, {"smiles": "COC(=O)/C(=C/c1cc(OC)cc(OC)c1)c1ccc(OCC(O)CNCc2ccc(F)cc2)cc1", "note": "(stereo not drawn) [Example 20, 2-{4-[3-(4-Fluorobenzylamino)-2-hydroxypropoxy]phenyl}-3-(3,5-dimethoxyphenyl)acrylic acid methyl ester]", "values": [{"measurement": "GI50", "setting": "[1]", "result": 16.8, "unit": "µM"}, {"measurement": "inhibition at 10 µM", "setting": "[2]", "result": 0, "unit": "%"}]}, {"smiles": "COC(=O)/C(=C/c1ccc(F)c(C)c1)c1ccc(OCC(O)CNCc2ccccc2)cc1", "note": "(stereo not drawn) [Example 21, 2-{4-[3-(Benzylamino)-2-hydroxypropoxy]phenyl}-3-(4-fluoro-3-methylphenyl)acrylic acid methyl ester]", "values": [{"measurement": "GI50", "setting": "[1]", "result": 13.1, "unit": "µM"}, {"measurement": "inhibition at 10 µM", "setting": "[2]", "result": 22.8, "unit": "%"}]}, {"smiles": "COC(=O)/C(=C/c1ccc(Cl)cc1)c1ccc(OCC(O)CNCc2ccc(OC)cc2OC)cc1", "note": "(stereo not drawn) [Example 22, 2-{4-[3-(2,4-Dimethoxybenzylamino)-2-hydroxypropoxy]phenyl}-3-(4-chlorophenyl)acrylic acid methyl ester]", "values": [{"measurement": "GI50", "setting": "[1]", "result": 16.1, "unit": "µM"}, {"measurement": "inhibition at 10 µM", "setting": "[2]", "result": 59.8, "unit": "%"}]}, {"smiles": "COC(=O)/C(=C/c1ccc(SC)cc1)c1ccc(OCC(O)CNCCOc2ccccc2OC)cc1", "note": "(stereo not drawn) [Example 23, 2-{4-[3-(2-Methoxyphenoxy-ethylamino)-2-hydroxy-propoxy]-phenyl}-3-(4-(methylthio)phenyl)-acrylic acid methyl ester]", "values": [{"measurement": "GI50", "setting": "[1]", "result": 11.7, "unit": "µM"}, {"measurement": "inhibition at 10 µM", "setting": "[2]", "result": 54.2, "unit": "%"}]}, {"smiles": "COC(=O)/C(=C/c1ccccc1)c1ccc(OCC(O)CNCc2ccccc2)cc1", "note": "(stereo not drawn) [Example 24, 2-{4-[3-(Benzylamino)-2-hydroxypropoxy]phenyl}-3-phenylacrylic acid methyl ester]", "values": [{"measurement": "GI50", "setting": "[1]", "result": 15.5, "unit": "µM"}, {"measurement": "inhibition at 10 µM", "setting": "[2]", "result": 0, "unit": "%"}]}, {"smiles": "COC(=O)/C(=C/c1ccccc1)c1ccc(OCC(O)CNCCOc2ccccc2OC)cc1", "note": "(stereo not drawn) [Example 25, 2-{4-[3-(2-Methoxyphenoxyethylamino)-2-hydroxypropoxy]phenyl}-3-phenylacrylic acid methyl ester]", "values": [{"measurement": "GI50", "setting": "[1]", "result": 27.8, "unit": "µM"}, {"measurement": "inhibition at 10 µM", "setting": "[2]", "result": 20.5, "unit": "%"}]}]}
